Positions of bridges follow the written chain, without caps; N, C: chain ends. Non-standard residues stand in square brackets, D forms with d. Residues, ends and D or L forms follow the SMILES beside them. Chains are numbered I, II in the order given. tBuAla = CC(C)(C)C[C@H](N)C(=O)O

One series relates to HeLa cells. Put plainly: Cytotoxicity of dimeric peptides, WST-1 assay. It is filed as cell-based, human. Particulars: IC50 relative to LK-3, HeLa cells. Here is the method: Cytotoxicity was identified using WST-1 assay by treating HeLa cells with peptides in a 96-well plate (1×10^4 cells/well) for 24 hours.
Specifically, HeLa cells were cultured in DMEM at a condition of 37° C. with 5% CO2. The cells were respectively cultured in a cell culture plate, and then removed with trypsin. The cells were seeded at 1×10^4 cells per well in a 96-well plate. After 24 hours, the peptide was added to the media, and culture was performed again at a condition of 37° C. with 5% CO2 for 24 hours. 10 uL of WST-1 reagent was added per well, and reaction was allowed to proceed for 30 minutes at a condition of 37° C. with 5% CO2. Then, UV absorbance was measured at 450/700 nm with a 96-well plate reader.
(Tetrazolium dyes change colour on reduction, which living cells bring about.)
For the compound `CC(=O)N[C@@H](Cc1ccccc1)C(=O)N[C@H]1CSSC[C@@H](C(=O)N[C@@H](CCCCN)C(N)=O)NC(=O)[C@H](Cc2ccccc2)NC(=O)[C@H](CCCCN)NC(=O)[C@H](CCCCN)NC(=O)[C@H](Cc2ccccc2)NC(=O)[C@H](Cc2ccccc2)NC(=O)[C@H](CCCCN)NC(=O)[C@@H](NC(=O)[C@H](Cc2ccccc2)NC(C)=O)CSSC[C@@H](C(=O)N[C@@H](CCCCN)C(N)=O)NC(=O)[C@H](Cc2ccccc2)NC(=O)[C@H](CCCCN)NC(=O)[C@H](CCCCN)NC(=O)[C@H](Cc2ccccc2)NC(=O)[C@H](Cc2ccccc2)NC(=O)[C@H](CCCCN)NC1=O` [diFK10] (HELM PEPTIDE1{[ac].F.C.K.F.F.K.K.F.C.K.[am]}|PEPTIDE2{[ac].F.C.K.F.F.K.K.F.C.K.[am]}$PEPTIDE1,PEPTIDE2,3:R3-10:R3|PEPTIDE1,PEPTIDE2,10:R3-3:R3$$$V2.0; bridges inferred), the ratio came to 2.11.

Take `CC[C@H](C)[C@H](NC(C)=O)C(=O)N[C@H]1CSSC[C@@H](C(=O)N[C@@H](CCCCN)C(N)=O)NC(=O)[C@H]([C@@H](C)CC)NC(=O)[C@H](CCCCN)NC(=O)[C@H](CCCCN)NC(=O)[C@H]([C@@H](C)CC)NC(=O)[C@H]([C@@H](C)CC)NC(=O)[C@H](CCCCN)NC(=O)[C@@H](NC(=O)[C@@H](NC(C)=O)[C@@H](C)CC)CSSC[C@@H](C(=O)N[C@@H](CCCCN)C(N)=O)NC(=O)[C@H]([C@@H](C)CC)NC(=O)[C@H](CCCCN)NC(=O)[C@H](CCCCN)NC(=O)[C@H]([C@@H](C)CC)NC(=O)[C@H]([C@@H](C)CC)NC(=O)[C@H](CCCCN)NC1=O` [diIK10] (HELM PEPTIDE1{[ac].I.C.K.I.I.K.K.I.C.K.[am]}|PEPTIDE2{[ac].I.C.K.I.I.K.K.I.C.K.[am]}$PEPTIDE1,PEPTIDE2,3:R3-10:R3|PEPTIDE1,PEPTIDE2,10:R3-3:R3$$$V2.0; bridges inferred): the ratio was determined as 2.57. Take `CC(=O)N[C@@H](CC(C)(C)C)C(=O)N[C@H]1CSSC[C@@H](C(=O)N[C@@H](CCCCN)C(N)=O)NC(=O)[C@H](CC(C)(C)C)NC(=O)[C@H](CCCCN)NC(=O)[C@H](CCCCN)NC(=O)[C@H](CC(C)(C)C)NC(=O)[C@H](CC(C)(C)C)NC(=O)[C@H](CCCCN)NC(=O)[C@@H](NC(=O)[C@H](CC(C)(C)C)NC(C)=O)CSSC[C@@H](C(=O)N[C@@H](CCCCN)C(N)=O)NC(=O)[C@H](CC(C)(C)C)NC(=O)[C@H](CCCCN)NC(=O)[C@H](CCCCN)NC(=O)[C@H](CC(C)(C)C)NC(=O)[C@H](CC(C)(C)C)NC(=O)[C@H](CCCCN)NC1=O` [diL*K10] (I: Ac-[tBuAla]CK[tBuAla][tBuAla]KK[tBuAla]CK-NH2 / II: Ac-[tBuAla]CK[tBuAla][tBuAla]KK[tBuAla]CK-NH2; disulfide I:2-II:9, I:9-II:2 (inferred)): the ratio was 2.32.

On to `CC(=O)N[C@@H](CC(C)(C)C)C(=O)N[C@H]1CSSC[C@@H](C(=O)N[C@@H](CCCNC(=N)N)C(N)=O)NC(=O)[C@H](CC(C)(C)C)NC(=O)[C@H](CCCNC(=N)N)NC(=O)[C@H](CCCNC(=N)N)NC(=O)[C@H](CC(C)(C)C)NC(=O)[C@H](CC(C)(C)C)NC(=O)[C@H](CCCNC(=N)N)NC(=O)[C@@H](NC(=O)[C@H](CC(C)(C)C)NC(C)=O)CSSC[C@@H](C(=O)N[C@@H](CCCNC(=N)N)C(N)=O)NC(=O)[C@H](CC(C)(C)C)NC(=O)[C@H](CCCNC(=N)N)NC(=O)[C@H](CCCNC(=N)N)NC(=O)[C@H](CC(C)(C)C)NC(=O)[C@H](CC(C)(C)C)NC(=O)[C@H](CCCNC(=N)N)NC1=O` [diL*R10] (I: Ac-[tBuAla]CR[tBuAla][tBuAla]RR[tBuAla]CR-NH2 / II: Ac-[tBuAla]CR[tBuAla][tBuAla]RR[tBuAla]CR-NH2; disulfide I:2-II:9, I:9-II:2 (inferred)), for which the ratio was 3.11.

Staying with this series, now noted: even at 40 μM, data not shown.
Turning to “diLH10: dimer of monomer LH10, AC-LCHLLHHLCH-NH2 (SEQ ID NO 14) (Ac-LCHLLHHLCH-NH2; also: dimer of two monomers linked by interchain disulfide bonds)”, the toxicity entry is recorded as “no toxicity was observed”.
